# Laboratory results from patent US9708336B2, “Metallo-beta-lactamase inhibitors” (priority 2014, dated 2017).
# Like-named read-outs stand apart in the source and are kept apart here.
# Experiments:
# VIM-1 = VIM-1 (Pseudomonas aeruginosa (strain ATCC 15692 / DSM 22644 / CIP 104116 / JCM 14847 / LMG 12228 / 1C / PRS 101 / PAO1), UniProt A0A0F7KYQ8); assay: Enzyme activity: determination of IC50, fluorescence assay with CCF2-FA substrate (VIM-1); format: biochemical
# NDM-1 = NDM-1 (Klebsiella pneumoniae, UniProt C7C422); assay: biochemical; format: biochemical; details: fluorescence assay with CCF2-FA substrate; read-out: NDM-1 IC50
# Experimental: Enzyme Activity: Determination of IC50
# The Class B enzyme activities were measured in the presence of the test inhibitor in a fluorescence assay against a commercially available substrate consisting of a cephalosporin core linking 7-hydroxycoumarin to fluorescein (CCF2-FA). The enzyme (NDM-1, IMP-1 or VIM-1) and the substrate were diluted in 100 mM KH2PO4 buffer (pH 7) containing 0.005% Tween-20 and 10 μM ZnSO4. […] The test inhibitor was dissolved in dimethylsulfoxide and diluted 1:50 in the assay, resulting in a final concentration range of 20 uM to 0.00063 uM. In a 384-well microplate, the test inhibitor was incubated with the metallo-β-lactamase enzyme and the substrate for 2 hours at 25° C. Fluorescence at 460 nm following excitation at 405 nm was measured. The IC50 value was determined from semi-logarithmic plots of enzyme inhibition versus inhibitor concentration, with a curve generated using a 4-parameter fit.
# [1] = system: Klebsiella pneumoniae expressing VIM-1 (IHMA599644); assay: Antibiotic potentiation activity: synergistic concentration (MITC95) with imipenem, OD600 growth; format: cell-based; details: concentration giving 95% inhibition of bacterial growth
# Experimental: (§1) Antibiotic Potentiation Activity: Determination of Synergistic Concentration
# (§2) The bacterial strains tested included the clinical strains Escherichia coli expressing NDM-1 (CLB30005, CLB30016), Serratia marcescens expressing IMP-1 (CL5741), and Klebsiella pneumoniae expressing VIM-1 (IHMA599644) Inhibitor activity was measured in the presence and absence of imipenem in a 384-well microplate.
# (§3) The clinical strains CLB30016, CL5741 and IHMA599644 were grown on trypticase soy agar containing 5% sheep's blood. The clinical strain CLB30005 was grown on Mueller Hinton broth agar containing 8 ug/ml imipenem. The bacteria on agar plates were incubated at 35° C. with humidity overnight. The following day, individual colonies from each clinical strain were picked and resuspended in 5 ml saline to attain an OD600 of 0.14, 0.11, 0.15 and 0.13, for CLB30005, CLB30016, CL5741 and IHMA599644, respectively. These were further diluted 1:100 into 1.1×CAMHB and used to inoculate the test wells as described below.
# (§4) Imipenem in 10 mM 3-(N-morpholino)propanesulfonic acid (MOPS, pH 7) was stored in single use aliquots at −80° C. […] On the day of the assay, 4 μl of antibiotic was added to 45 ul of bacteria followed by 1 μl of test compound and mixed by pipetting and with an orbital shaker. The concentration of antibiotic used in the assay was 4 μg/ml, or optionally 1 μg/ml. Microplates were covered and incubated at 35° C. for 22 hours to 24 hours. At the end of the incubation, absorbance was determined using a spectrophotometer.
# [2] = system: Escherichia coli expressing NDM-1 (CLB30016); assay: as above; format: cell-based; details: concentration giving 95% inhibition of bacterial growth
# Experimental: as §1, §2, §3, §4
# [3] = system: Serratia marcescens expressing IMP-1 (CL5741); assay: as above; format: cell-based; details: concentration giving 95% inhibition of bacterial growth
# Experimental: as §1, §2, §3, §4
# IMP-1 = IMP-1 (Serratia marcescens, UniProt P52699); assay: biochemical; format: biochemical; details: fluorescence assay with CCF2-FA substrate; read-out: IMP-1 IC50
# [4] = fluorescence assay with CCF2-FA substrate, read-out: VIM-1 IC50
# [5] = VIM-1 IC50, fluorescence assay with CCF2-FA substrate
# Sequence of NDM-1 (C7C422 whole entry, looked up, species assumed): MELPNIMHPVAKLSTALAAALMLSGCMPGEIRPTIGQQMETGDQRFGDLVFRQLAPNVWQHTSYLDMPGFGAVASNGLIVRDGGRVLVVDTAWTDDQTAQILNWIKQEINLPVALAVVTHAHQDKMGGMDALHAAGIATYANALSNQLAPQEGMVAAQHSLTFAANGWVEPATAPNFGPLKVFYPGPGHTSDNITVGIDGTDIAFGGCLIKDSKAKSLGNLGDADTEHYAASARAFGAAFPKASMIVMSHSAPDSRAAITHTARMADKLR
# Sequence of IMP-1 (P52699 whole entry, looked up): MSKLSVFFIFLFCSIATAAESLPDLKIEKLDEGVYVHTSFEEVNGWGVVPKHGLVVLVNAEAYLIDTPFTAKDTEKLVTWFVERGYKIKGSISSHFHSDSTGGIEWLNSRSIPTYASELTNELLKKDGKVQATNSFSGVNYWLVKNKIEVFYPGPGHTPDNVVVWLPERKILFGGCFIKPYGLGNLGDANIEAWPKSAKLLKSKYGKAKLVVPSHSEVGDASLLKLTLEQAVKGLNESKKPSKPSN
SMILES,IC50 (VIM-1; [4]) [nM],IC50 (NDM-1) [nM],Klebsiella pneumoniae expressing VIM-1 (IHMA 599644) MITC95 [1] [µM],Escherichia coli expressing NDM-1 (CLB 30016) MITC95 [2] [µM],Serratia marcescens expressing IMP-1 (CL5741) MITC95 [3] [µM],IC50 (IMP-1) [nM],IC50 (VIM-1; [5]) [nM]
"COc1ccc2cc(-c3cccc(S(N)(=O)=O)c3-c3nnn[nH]3)cnc2n1 [Example 138, 3-(7-methoxy-1,8-naphthyridin-3-yl)-2-(1H-tetrazol-5-yl)benzenesulfonamide]",166,6.78,>200,1.563,37.5,354,–
"Cc1cccn2c(-c3cccc(S(N)(=O)=O)c3-c3nnn[nH]3)cnc12 [Example 139, 3-(8-methylimidazo[1,2-a]pyridin-3-yl)-2-(1H-tetrazol-5-yl)benzenesulfonamide]",5.78,0.637,12.5,0.1953,6.25,98.4,–
"NS(=O)(=O)c1cccc(C2=CCOCC2)c1-c1nnn[nH]1 [Example 140, 3-(3,6-dihydro-2H-pyran-4-yl)-2-(1H-tetrazol-5-yl)benzenesulfonamide]",388,7.68,50,0.5859,6.25,160,–
"NS(=O)(=O)c1cccc(COc2ccccc2)c1-c1nnn[nH]1 [Example 142, 3-(phenoxymethyl)-2-(1H-tetrazol-5-yl)benzenesulfonamide]",419,8.2,>200,1.563,6.25,81,–
"NS(=O)(=O)c1cccc(CCc2ccccn2)c1-c1nnn[nH]1 [Example 144, 3-(2-pyridin-2-ylethyl)-2-(1H-tetrazol-5-yl)benzenesulfonamide]",1540,121,>200,3.125,200,4500,–
"NS(=O)(=O)c1cccc(C2CCC2)c1-c1nnn[nH]1 [Example 149, 3-cyclobutyl-2-(1H-tetrazol-5-yl)benzenesulfonamide]",861,23.7,150,1.563,6.25,493,–
"Cc1cccc(S(N)(=O)=O)c1-c1nnn[nH]1 [Example 150, 3-methyl-2-(1H-tetrazol-5-yl)benzenesulfonamide]",5650,148,200,0.7813,6.25,1940,–
"NS(=O)(=O)c1cccc(C2CCCCC2)c1-c1nnn[nH]1 [Example 151, 3-cyclohexyl-2-(1H-tetrazol-5-yl)benzenesulfonamide]",31.5,1.25,37.5,1.172,1.563,31.8,–
"N#Cc1cccc(Cc2cccc(S(N)(=O)=O)c2-c2nnn[nH]2)c1 [Example 152, 3-(3-cyanobenzyl)-2-(1H-tetrazol-5-yl)benzenesulfonamide]",91.4,14.2,200,4.688,12.5,252,–
"NS(=O)(=O)c1cccc(CC2CCCCC2)c1-c1nnn[nH]1 [Example 153, 3-(cyclohexylmethyl)-2-(1H-tetrazol-5-yl)benzenesulfonamide]",–,8.25,>200,4.688,2.344,71.3,252
"NS(=O)(=O)c1cccc(CCc2ccccc2)c1-c1nnn[nH]1 [Example 154, 3-phenethyl-2-(1H-tetrazol-5-yl)benzenesulfonamide]",–,3.28,100,2.344,0.3906,10.8,80.8
"Cc1ccccc1Cc1cccc(S(N)(=O)=O)c1-c1nnn[nH]1 [Example 155, 3-(2-methylbenzyl)-2-(1H-tetrazol-5-yl)benzenesulfonamide]",16.2,3,75,3.125,2.344,92.7,–
"CC(C)c1cccc(S(N)(=O)=O)c1-c1nnn[nH]1 [Example 156, 3-isopropyl-2-(1H-tetrazol-5-yl)benzenesulfonamide]",391,13.1,50,0.5859,9.375,508,–
"NS(=O)(=O)c1cccc(C2CC2)c1-c1nnn[nH]1 [Example 157, 3-cyclopropyl-2-(1H-tetrazol-5-yl)benzenesulfonamide]",1050,28.7,50,0.3906,6.25,561,–
"Cc1cccc(Cc2cccc(S(N)(=O)=O)c2-c2nnn[nH]2)c1 [Example 158, 3-(3-methylbenzyl)-2-(1H-tetrazol-5-yl)benzenesulfonamide]",–,16,200,3.125,12.5,387,352
"CC(C)(C)Cc1cccc(S(N)(=O)=O)c1-c1nnn[nH]1 [Example 159, 3-neopentyl-2-(1H-tetrazol-5-yl)benzenesulfonamide]",3390,34,>200,3.125,18.75,526,–
"NS(=O)(=O)c1cccc(C2CCCC2)c1-c1nnn[nH]1 [Example 160, 3-cyclopentyl-2-(1H-tetrazol-5-yl)benzenesulfonamide]",280,9,75,0.7813,9.375,251,–
"CC(C)(C)c1cccc(S(N)(=O)=O)c1-c1nnn[nH]1 [Example 161, 3-(tert-butyl)-2-(1H-tetrazol-5-yl)benzenesulfonamide]",–,20.1,150,1.563,6.25,306,874
"NS(=O)(=O)c1cccc(Cc2ccccc2)c1-c1nnn[nH]1 [Example 162, 3-benzyl-2-(1H-tetrazol-5-yl)benzenesulfonamide]",691,18.9,200,1.563,12.5,571,–
"Cc1ccc(Cc2cccc(S(N)(=O)=O)c2-c2nnn[nH]2)cc1 [Example 163, 3-(4-methylbenzyl)-2-(1H-tetrazol-5-yl)benzenesulfonamide]",437,17.7,>200,3.125,12.5,327,–
"NS(=O)(=O)c1cccc(CCC2CCCCC2)c1-c1nnn[nH]1 [Example 164, 3-(2-cyclohexylethyl)-2-(1H-tetrazol-5-yl)benzenesulfonamide]",50.6,2.93,200,1.563,0.3906,5.5,–
